Our source for the Ki values is ChEMBL document CHEMBL1146280, “New competitive inhibitors of cytosolic (NADH-dependent) rabbit muscle glycerophosphate dehydrogenase” (Bioorg Med Chem Lett, 2007).

SMILES strings stand for the structures.

The Ki is the dissociation constant of the complex between target and ligand, obtained from inhibition or displacement. A lower Ki goes with tighter binding.

Experiment [1] is described as follows: Inhibition of class I FBA. Also noted: species or system Homo sapiens.
Experiment [2] can be described thus: Inhibition of class II FBA.
The species named for another experiment is Oryctolagus cuniculus. As to the kind of experiment: Inhibition of rabbit muscle NADH-dependent cytosolic glycerophosphate dehydrogenase.

On to `O=C(CC(O)P(=O)(O)O)NO` (stereo not drawn), for which the Ki in experiment [1] was found to be 180 µM; in experiment [2], 418 µM; in the experiment filed under Oryctolagus cuniculus, 40 µM.
For the molecule `N/C(COP(=O)(O)O)=N/O`, the Ki in experiment [1] is above 1000 µM; in experiment [2], 2.3 µM; in the experiment filed under Oryctolagus cuniculus, 100 µM.
Take `NNC(=O)COP(=O)(O)O` [PHOSPHORIC ACID MONOHYDRAZINOCARBONYLMETHYL ESTER]: the inhibition constant (Ki) is 370 µM in experiment [1], 0.34 µM in experiment [2] and above 500 µM in the experiment filed under Oryctolagus cuniculus.
As for `O=C(CCP(=O)(O)O)NO`, the Ki in experiment [1] is above 500 µM; in experiment [2], 145 µM; in the experiment listed under Oryctolagus cuniculus, 6 µM.
For `O=C(COP(=O)(O)O)NO` [PHOSPHOGLYCOLOHYDROXAMATE], the inhibition constant (Ki) was determined as 1 µM in experiment [1], 0.01 µM in experiment [2] and 10 µM in the experiment filed under Oryctolagus cuniculus.
Take `NC(CC(=O)NO)P(=O)(O)O` (stereo not drawn): the Ki in experiment [1] is 9000 µM; in experiment [2] it was 3000 µM; in the experiment filed under Oryctolagus cuniculus, above 500 µM.
